According to ChEMBL document CHEMBL4385602, “Stereoselective synthesis and biological evaluation as inhibitors of hepatitis C virus RNA polymerase of GSK3082 analogues with structural diversity at the 5-position” (Eur J Med Chem, 2019):

tested on: not listed separately; test: Cytotoxicity against human Huh5-2 cells assessed as reduction in cell viability measured after 3 days by CellTiter 96 AQueous One Solution Cell Proliferation assay; assay type: cell-based, Huh-5-2; conditions: not given

SMILES	CC50 at 72 h [µM]
COC[C@H]1C[C@@](CC(C)C)(C(=O)O)N(C(=O)c2ccc(C(C)(C)C)c(OC)c2)[C@H]1C(=O)OC	> 120
COC[C@H]1C[C@@](CC(C)C)(C(=O)O)N(C(=O)c2ccc(C(C)(C)C)c(OC)c2)[C@H]1COC	> 120
COC[C@H]1C[C@@](CC(C)C)(C(=O)O)N(C(=O)c2ccc(C(C)(C)C)c(OC)c2)[C@H]1[C@H]1COC(C)(C)O1	> 120
C=CCOC[C@H]1[C@@H](COC)C[C@@](CC(C)C)(C(=O)O)N1C(=O)c1ccc(C(C)(C)C)c(OC)c1	> 120
COC[C@H]1C[C@@](CC(C)C)(C(=O)O)N(C(=O)c2ccc(C(C)(C)C)c(OC)c2)[C@H]1COC(=O)OC	> 120
COC[C@H]1C[C@@](CC(C)C)(C(=O)O)N(C(=O)c2ccc(C(C)(C)C)c(OC)c2)[C@H]1C(N)=O	> 120
COC[C@H]1C[C@@](CC(C)C)(C(=O)O)N(C(=O)c2ccc(C(C)(C)C)c(OC)c2)[C@H]1[C@H]1COC(=O)O1	> 120
CC[C@H]1[C@@H](COC)C[C@@](CC(C)C)(C(=O)O)N1C(=O)c1ccc(C(C)(C)C)c(OC)c1	200
COC[C@H]1C[C@@](CC(C)C)(C(=O)O)N(C(=O)c2ccc(C(C)(C)C)c(OC)c2)[C@H]1CNC(C)=O	> 120
COC[C@H]1C[C@@](CC(C)C)(C(=O)O)N(C(=O)c2ccc(C(C)(C)C)c(OC)c2)[C@H]1COC(C)=O	> 120
COC[C@H]1C[C@@](CC(C)C)(C(=O)O)N(C(=O)c2ccc(C(C)(C)C)c(OC)c2)[C@H]1c1nccs1	> 120
COC[C@H]1C[C@@](CC(C)C)(C(=O)O)N(C(=O)c2ccc(C(C)(C)C)c(OC)c2)[C@H]1CN=[N+]=[N-]	> 120
CCOC(=O)c1csc([C@H]2[C@@H](COC)C[C@@](CC(C)C)(C(=O)O)N2C(=O)c2ccc(C(C)(C)C)c(OC)c2)n1	200
COC[C@H]1C[C@@](CC(C)C)(C(=O)O)N(C(=O)c2ccc(C(C)(C)C)c(OC)c2)[C@@H]1c1nccs1	200
COC[C@H]1C[C@@](CC(C)C)(C(=O)O)N(C(=O)c2ccc(C(C)(C)C)c(OC)c2)[C@H]1CF	> 120

target: RNA-directed RNA polymerase (Hepacivirus hominis) (UniProt O39930); test: Inhibition of NS5B RNA dependent RNA polymerase in HCV 1b Con1 infected in human Huh5-2 cells assessed as reduction in viral RNA replication measured after 3 days by luciferase reporter gene assay; assay type: cell-based; conditions: Hepatitis C virus subtype 1b
Sequence (O39930 1-591): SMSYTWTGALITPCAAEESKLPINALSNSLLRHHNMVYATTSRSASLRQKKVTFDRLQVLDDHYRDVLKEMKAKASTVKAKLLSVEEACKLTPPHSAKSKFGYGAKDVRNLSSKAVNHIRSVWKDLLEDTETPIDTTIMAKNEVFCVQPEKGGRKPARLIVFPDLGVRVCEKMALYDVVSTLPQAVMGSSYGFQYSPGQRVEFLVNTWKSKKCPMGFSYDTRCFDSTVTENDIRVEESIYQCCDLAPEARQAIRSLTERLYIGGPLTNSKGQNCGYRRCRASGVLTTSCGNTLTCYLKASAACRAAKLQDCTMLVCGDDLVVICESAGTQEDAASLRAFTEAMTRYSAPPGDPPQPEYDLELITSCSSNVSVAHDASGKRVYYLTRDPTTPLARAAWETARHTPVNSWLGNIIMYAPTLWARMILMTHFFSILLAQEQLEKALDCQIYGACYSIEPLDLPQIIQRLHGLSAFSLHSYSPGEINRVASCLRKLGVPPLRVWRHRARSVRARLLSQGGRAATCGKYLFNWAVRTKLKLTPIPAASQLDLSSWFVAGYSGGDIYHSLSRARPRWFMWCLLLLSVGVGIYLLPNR

SMILES	inhibition
COC[C@H]1C[C@@](CC(C)C)(C(=O)O)N(C(=O)c2ccc(C(C)(C)C)c(OC)c2)[C@H]1C(=O)OC	Dose-dependent effect
COC[C@H]1C[C@@](CC(C)C)(C(=O)O)N(C(=O)c2ccc(C(C)(C)C)c(OC)c2)[C@H]1COC	Dose-dependent effect
COC[C@H]1C[C@@](CC(C)C)(C(=O)O)N(C(=O)c2ccc(C(C)(C)C)c(OC)c2)[C@H]1[C@H]1COC(C)(C)O1	Dose-dependent effect
C=CCOC[C@H]1[C@@H](COC)C[C@@](CC(C)C)(C(=O)O)N1C(=O)c1ccc(C(C)(C)C)c(OC)c1	Dose-dependent effect
COC[C@H]1C[C@@](CC(C)C)(C(=O)O)N(C(=O)c2ccc(C(C)(C)C)c(OC)c2)[C@H]1COC(=O)OC	Dose-dependent effect
COC[C@H]1C[C@@](CC(C)C)(C(=O)O)N(C(=O)c2ccc(C(C)(C)C)c(OC)c2)[C@H]1C(N)=O	Dose-dependent effect
COC[C@H]1C[C@@](CC(C)C)(C(=O)O)N(C(=O)c2ccc(C(C)(C)C)c(OC)c2)[C@H]1[C@H]1COC(=O)O1	Dose-dependent effect
CC[C@H]1[C@@H](COC)C[C@@](CC(C)C)(C(=O)O)N1C(=O)c1ccc(C(C)(C)C)c(OC)c1	Dose-dependent effect
COC[C@H]1C[C@@](CC(C)C)(C(=O)O)N(C(=O)c2ccc(C(C)(C)C)c(OC)c2)[C@H]1CNC(C)=O	Dose-dependent effect
COC[C@H]1C[C@@](CC(C)C)(C(=O)O)N(C(=O)c2ccc(C(C)(C)C)c(OC)c2)[C@H]1COC(C)=O	Dose-dependent effect
COC[C@H]1C[C@@](CC(C)C)(C(=O)O)N(C(=O)c2ccc(C(C)(C)C)c(OC)c2)[C@H]1c1nccs1	Dose-dependent effect
COC[C@H]1C[C@@](CC(C)C)(C(=O)O)N(C(=O)c2ccc(C(C)(C)C)c(OC)c2)[C@H]1CN=[N+]=[N-]	Dose-dependent effect
CCOC(=O)c1csc([C@H]2[C@@H](COC)C[C@@](CC(C)C)(C(=O)O)N2C(=O)c2ccc(C(C)(C)C)c(OC)c2)n1	Dose-dependent effect
COC[C@H]1C[C@@](CC(C)C)(C(=O)O)N(C(=O)c2ccc(C(C)(C)C)c(OC)c2)[C@@H]1c1nccs1	Dose-dependent effect
COC[C@H]1C[C@@](CC(C)C)(C(=O)O)N(C(=O)c2ccc(C(C)(C)C)c(OC)c2)[C@H]1CF	Dose-dependent effect
